# PMC4844702, “Selective inhibition of the kinase DYRK1A by targeting its folding process” (Nature Communications, 2016)
# Key:
# [1] = tested on: other 13 kinases; assay: Endogenous kinases in intact HEK293 cells, western blot; assay type: cell-based; details: 3 days
# Text: The results are presented as means±s.d. (n=4). […] Representative data from the duplicate experiments are shown.
# [2] = target: T1, ACK (Homo sapiens, UniProt Q07912); assay: Kinase panel (Carna); assay type: biochemical
# T1 construct: purchased Carna Biosciences
# Text: (§1) Detailed information on the assay conditions is available on the website of Carna Biosciences (http://www.carnabio.com).
# [3] = target: T2, BRK (Homo sapiens, UniProt Q13882); assay: Kinase panel (Carna); assay type: biochemical
# T2 construct: purchased Carna Biosciences
# Text: as §1
# [4] = target: T3, BTK (Homo sapiens, UniProt Q06187); assay: Kinase panel (Carna); assay type: biochemical
# T3 construct: purchased Carna Biosciences
# Text: as §1
# [5] = target: T4, EPHB1 (Homo sapiens, UniProt P54762); assay: Kinase panel (Carna); assay type: biochemical
# T4 construct: purchased Carna Biosciences
# Text: as §1
# [6] = target: T5, FER (Homo sapiens, UniProt P16591); assay: Kinase panel (Carna); assay type: biochemical
# T5 construct: purchased Carna Biosciences
# Text: as §1
# [7] = target: T6, FGFR1 (Homo sapiens, UniProt P11362); assay: Kinase panel (Carna); assay type: biochemical
# T6 construct: purchased Carna Biosciences
# [8] = target: T7, FMS (Homo sapiens, UniProt P07333); assay: Kinase panel (Carna); assay type: biochemical
# T7 construct: purchased Carna Biosciences
# Text: as §1
# [9] = target: T8, HER4 (Homo sapiens, UniProt Q15303); assay: Kinase panel (Carna); assay type: biochemical
# T8 construct: purchased Carna Biosciences
# Text: as §1
# [10] = target: T9, INSR (Homo sapiens, UniProt P06213); assay: Kinase panel (Carna); assay type: biochemical
# T9 construct: purchased Carna Biosciences
# Text: as §1
# [11] = target: T10, MET (Homo sapiens, UniProt P08581); assay: Kinase panel (Carna); assay type: biochemical
# T10 construct: purchased Carna Biosciences
# Text: as §1
# [12] = target: T11, RON (Homo sapiens, UniProt Q04912); assay: Kinase panel (Carna); assay type: biochemical
# T11 construct: purchased Carna Biosciences
# Text: as §1
# [13] = target: T12, TEC (Homo sapiens, UniProt P42680); assay: Kinase panel (Carna); assay type: biochemical
# T12 construct: purchased Carna Biosciences
# Text: as §1
# [14] = target: T13, TRKB (Homo sapiens, UniProt Q16620); assay: Kinase panel (Carna); assay type: biochemical
# T13 construct: purchased Carna Biosciences
# Text: as §1
# [15] = target: T14, AurA (Homo sapiens, UniProt O14965); assay: Kinase panel (Carna); assay type: biochemical
# T14 construct: purchased Carna Biosciences
# Text: as §1
# [16] = target: T15, CaMK2α (Homo sapiens, UniProt Q9UQM7); assay: Kinase panel (Carna); assay type: biochemical
# T15 construct: purchased Carna Biosciences
# Text: as §1
# [17] = target: T16, CaMK2γ (Homo sapiens, UniProt Q13555); assay: Kinase panel (Carna); assay type: biochemical
# T16 construct: purchased Carna Biosciences
# [18] = target: T17, CDK2/CycE1 (Homo sapiens, UniProt P24941); assay: Kinase panel (Carna); assay type: biochemical
# T17 construct: purchased Carna Biosciences
# Text: as §1
# [19] = target: T18, CGK2 (Homo sapiens, UniProt Q13237); assay: Kinase panel (Carna); assay type: biochemical
# T18 construct: purchased Carna Biosciences
# Text: as §1
# [20] = target: T19, CK2α2/β (Homo sapiens, UniProt P19784); assay: Kinase panel (Carna); assay type: biochemical
# T19 construct: purchased Carna Biosciences
# [21] = target: T20, COT_Cascade (Homo sapiens, UniProt P41279); assay: Kinase panel (Carna); assay type: biochemical
# T20 construct: purchased Carna Biosciences
# [22] = target: T21, IKKε (Homo sapiens, UniProt Q14164); assay: Kinase panel (Carna); assay type: biochemical
# T21 construct: purchased Carna Biosciences
# Text: as §1
# [23] = target: T22, IRAK1 (Homo sapiens, UniProt P51617); assay: Kinase panel (Carna); assay type: biochemical
# T22 construct: purchased Carna Biosciences
# Text: as §1
# [24] = target: T23, IRAK4 (Homo sapiens, UniProt Q9NWZ3); assay: Kinase panel (Carna); assay type: biochemical
# T23 construct: purchased Carna Biosciences
# Text: as §1
# [25] = target: T24, JNK3 (Homo sapiens, UniProt P53779); assay: Kinase panel (Carna); assay type: biochemical
# T24 construct: purchased Carna Biosciences
# [26] = target: T25, MAP3K4_Cascade (Homo sapiens, UniProt Q9Y6R4); assay: Kinase panel (Carna); assay type: biochemical
# T25 construct: purchased Carna Biosciences
# Text: as §1
# [27] = target: T26, NuaK2 (Homo sapiens, UniProt Q9H093); assay: Kinase panel (Carna); assay type: biochemical
# T26 construct: purchased Carna Biosciences
# [28] = target: T27, MAPKAPK3 (Homo sapiens, UniProt Q16644); assay: Kinase panel (Carna); assay type: biochemical
# T27 construct: purchased Carna Biosciences
# [29] = target: T28, MARK3 (Homo sapiens, UniProt P27448); assay: Kinase panel (Carna); assay type: biochemical
# T28 construct: purchased Carna Biosciences
# Text: as §1
# [30] = target: T29, MOS_Cascade (Homo sapiens, UniProt P00540); assay: Kinase panel (Carna); assay type: biochemical
# T29 construct: purchased Carna Biosciences
# [31] = target: T30, NDR1 (Homo sapiens, UniProt Q15208); assay: Kinase panel (Carna); assay type: biochemical
# T30 construct: purchased Carna Biosciences
# Text: as §1
# [32] = target: T31, NEK1 (Homo sapiens, UniProt Q96PY6); assay: Kinase panel (Carna); assay type: biochemical
# T31 construct: purchased Carna Biosciences
# Text: as §1
# [33] = target: T32, NEK4 (Homo sapiens, UniProt P51957); assay: Kinase panel (Carna); assay type: biochemical
# T32 construct: purchased Carna Biosciences
# [34] = target: T33, p38α (Homo sapiens, UniProt Q16539); assay: Kinase panel (Carna); assay type: biochemical
# T33 construct: purchased Carna Biosciences
# Text: as §1
# [35] = target: T34, PDHK4 (Homo sapiens, UniProt Q16654); assay: Kinase panel (Carna); assay type: biochemical
# T34 construct: purchased Carna Biosciences
# Text: as §1
# [36] = target: T35, PEK (Homo sapiens, UniProt Q9NZJ5); assay: Kinase panel (Carna); assay type: biochemical
# T35 construct: purchased Carna Biosciences
# Text: as §1
# [37] = target: T36, PIM1 (Homo sapiens, UniProt P11309); assay: Kinase panel (Carna); assay type: biochemical; details: 10 µM FINDY
# T36 construct: purchased Carna Biosciences
# Text: as §1
# [38] = target: T37, PKCδ (Homo sapiens, UniProt Q05655); assay: Kinase panel (Carna); assay type: biochemical
# T37 construct: purchased Carna Biosciences
# Text: as §1
# [39] = target: T38, PKN1 (Homo sapiens, UniProt Q16512); assay: Kinase panel (Carna); assay type: biochemical
# T38 construct: purchased Carna Biosciences
# [40] = target: T39, PLK1 (Homo sapiens, UniProt P53350); assay: Kinase panel (Carna); assay type: biochemical
# T39 construct: purchased Carna Biosciences
# [41] = target: T40, RSK2 (Homo sapiens, UniProt P51812); assay: Kinase panel (Carna); assay type: biochemical
# T40 construct: purchased Carna Biosciences
# [42] = target: T41, SGK2 (Homo sapiens, UniProt Q9HBY8); assay: Kinase panel (Carna); assay type: biochemical
# T41 construct: purchased Carna Biosciences
# [43] = target: T42, SIK (Homo sapiens, UniProt P57059); assay: Kinase panel (Carna); assay type: biochemical
# T42 construct: purchased Carna Biosciences
# [44] = target: T43, SPHK2 (Homo sapiens, UniProt Q9NRA0); assay: Kinase panel (Carna); assay type: biochemical
# T43 construct: purchased Carna Biosciences
# Text: as §1
# T12 sequence (P42680 whole entry): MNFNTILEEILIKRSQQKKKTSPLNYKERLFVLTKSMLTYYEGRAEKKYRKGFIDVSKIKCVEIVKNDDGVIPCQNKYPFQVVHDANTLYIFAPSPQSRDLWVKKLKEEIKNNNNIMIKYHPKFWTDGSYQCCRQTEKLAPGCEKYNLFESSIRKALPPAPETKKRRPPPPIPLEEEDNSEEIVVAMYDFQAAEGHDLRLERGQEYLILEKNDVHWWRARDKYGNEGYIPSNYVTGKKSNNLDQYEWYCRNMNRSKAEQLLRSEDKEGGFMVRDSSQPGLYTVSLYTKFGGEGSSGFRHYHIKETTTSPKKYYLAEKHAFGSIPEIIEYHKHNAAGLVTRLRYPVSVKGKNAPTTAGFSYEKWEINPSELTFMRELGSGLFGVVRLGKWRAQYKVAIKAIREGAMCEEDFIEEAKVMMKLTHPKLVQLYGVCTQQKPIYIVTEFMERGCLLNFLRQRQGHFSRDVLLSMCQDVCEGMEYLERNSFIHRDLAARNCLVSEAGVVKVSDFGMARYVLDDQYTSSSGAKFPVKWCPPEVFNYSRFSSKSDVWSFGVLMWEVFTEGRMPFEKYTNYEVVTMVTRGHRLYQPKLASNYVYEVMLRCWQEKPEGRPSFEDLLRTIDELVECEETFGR
# T1 sequence (Q07912 whole entry): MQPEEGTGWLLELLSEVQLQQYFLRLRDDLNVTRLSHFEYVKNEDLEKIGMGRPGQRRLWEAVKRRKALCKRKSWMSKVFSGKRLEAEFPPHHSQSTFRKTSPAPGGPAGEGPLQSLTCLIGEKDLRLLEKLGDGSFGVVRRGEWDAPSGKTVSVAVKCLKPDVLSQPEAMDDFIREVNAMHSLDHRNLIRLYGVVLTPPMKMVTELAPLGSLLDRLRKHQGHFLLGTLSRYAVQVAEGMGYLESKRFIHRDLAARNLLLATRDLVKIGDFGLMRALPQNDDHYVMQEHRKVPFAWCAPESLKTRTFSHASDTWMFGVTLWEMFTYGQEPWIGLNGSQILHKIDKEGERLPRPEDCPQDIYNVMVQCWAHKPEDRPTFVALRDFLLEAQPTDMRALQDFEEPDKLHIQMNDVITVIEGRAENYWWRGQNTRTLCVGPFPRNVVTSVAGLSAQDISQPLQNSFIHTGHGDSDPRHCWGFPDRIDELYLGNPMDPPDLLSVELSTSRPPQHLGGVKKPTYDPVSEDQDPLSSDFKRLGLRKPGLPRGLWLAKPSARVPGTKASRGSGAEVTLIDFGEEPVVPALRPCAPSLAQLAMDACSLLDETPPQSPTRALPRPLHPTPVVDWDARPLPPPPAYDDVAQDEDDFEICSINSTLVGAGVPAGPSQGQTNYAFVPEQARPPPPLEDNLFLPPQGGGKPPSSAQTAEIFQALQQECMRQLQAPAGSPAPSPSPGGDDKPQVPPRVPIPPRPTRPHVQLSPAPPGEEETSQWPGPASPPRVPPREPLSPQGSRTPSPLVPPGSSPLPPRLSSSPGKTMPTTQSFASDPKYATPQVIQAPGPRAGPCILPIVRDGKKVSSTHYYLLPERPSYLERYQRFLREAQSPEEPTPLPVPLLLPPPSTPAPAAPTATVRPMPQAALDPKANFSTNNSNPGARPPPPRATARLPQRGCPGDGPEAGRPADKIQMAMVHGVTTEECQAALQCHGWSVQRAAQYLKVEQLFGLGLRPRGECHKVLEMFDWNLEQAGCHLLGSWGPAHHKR
# T20 sequence (P41279 whole entry): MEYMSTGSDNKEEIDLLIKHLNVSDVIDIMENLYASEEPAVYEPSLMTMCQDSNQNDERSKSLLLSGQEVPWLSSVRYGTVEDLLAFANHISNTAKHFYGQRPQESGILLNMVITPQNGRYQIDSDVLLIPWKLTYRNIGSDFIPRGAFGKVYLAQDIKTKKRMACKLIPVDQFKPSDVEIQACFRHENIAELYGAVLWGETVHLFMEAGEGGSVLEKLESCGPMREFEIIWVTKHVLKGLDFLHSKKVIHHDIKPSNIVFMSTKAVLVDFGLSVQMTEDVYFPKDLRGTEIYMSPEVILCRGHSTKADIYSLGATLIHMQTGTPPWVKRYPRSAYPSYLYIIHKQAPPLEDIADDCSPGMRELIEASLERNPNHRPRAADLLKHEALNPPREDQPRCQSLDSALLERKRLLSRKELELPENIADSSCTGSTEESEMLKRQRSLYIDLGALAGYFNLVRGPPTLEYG
# T11 sequence (Q04912 25-1400): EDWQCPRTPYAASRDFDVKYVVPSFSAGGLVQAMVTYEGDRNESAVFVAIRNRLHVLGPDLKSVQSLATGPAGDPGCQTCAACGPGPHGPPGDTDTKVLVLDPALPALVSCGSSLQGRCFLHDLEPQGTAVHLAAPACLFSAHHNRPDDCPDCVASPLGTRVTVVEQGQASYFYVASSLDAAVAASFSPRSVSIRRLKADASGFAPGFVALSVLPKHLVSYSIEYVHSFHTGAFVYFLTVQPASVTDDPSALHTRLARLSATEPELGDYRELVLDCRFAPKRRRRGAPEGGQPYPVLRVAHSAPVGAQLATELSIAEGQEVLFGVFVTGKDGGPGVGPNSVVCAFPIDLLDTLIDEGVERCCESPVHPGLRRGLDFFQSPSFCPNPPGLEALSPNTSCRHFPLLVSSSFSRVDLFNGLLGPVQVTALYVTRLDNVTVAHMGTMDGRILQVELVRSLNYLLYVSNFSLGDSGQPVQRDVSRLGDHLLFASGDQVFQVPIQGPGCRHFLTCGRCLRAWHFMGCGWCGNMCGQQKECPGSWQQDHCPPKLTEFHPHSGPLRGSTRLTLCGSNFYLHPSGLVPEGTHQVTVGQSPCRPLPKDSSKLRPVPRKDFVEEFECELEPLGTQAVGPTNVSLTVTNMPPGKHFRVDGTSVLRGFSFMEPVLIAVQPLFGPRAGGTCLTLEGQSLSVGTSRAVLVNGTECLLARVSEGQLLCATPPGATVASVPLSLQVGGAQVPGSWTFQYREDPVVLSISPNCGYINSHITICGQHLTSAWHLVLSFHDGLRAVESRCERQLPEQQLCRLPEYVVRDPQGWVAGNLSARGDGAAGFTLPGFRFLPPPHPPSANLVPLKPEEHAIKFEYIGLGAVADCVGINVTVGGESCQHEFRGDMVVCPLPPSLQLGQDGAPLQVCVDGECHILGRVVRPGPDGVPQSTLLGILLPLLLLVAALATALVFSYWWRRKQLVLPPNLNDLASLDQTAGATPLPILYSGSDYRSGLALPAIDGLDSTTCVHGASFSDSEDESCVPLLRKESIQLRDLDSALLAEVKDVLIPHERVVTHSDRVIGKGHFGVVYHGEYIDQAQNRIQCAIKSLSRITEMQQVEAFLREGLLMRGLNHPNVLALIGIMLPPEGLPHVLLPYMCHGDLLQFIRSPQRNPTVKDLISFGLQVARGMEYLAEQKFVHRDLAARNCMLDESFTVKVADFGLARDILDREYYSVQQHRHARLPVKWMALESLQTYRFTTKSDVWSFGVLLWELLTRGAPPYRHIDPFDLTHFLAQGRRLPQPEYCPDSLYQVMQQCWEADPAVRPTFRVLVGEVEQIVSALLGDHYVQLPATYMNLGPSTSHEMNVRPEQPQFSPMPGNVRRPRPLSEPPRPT
# T42 sequence (P57059 whole entry): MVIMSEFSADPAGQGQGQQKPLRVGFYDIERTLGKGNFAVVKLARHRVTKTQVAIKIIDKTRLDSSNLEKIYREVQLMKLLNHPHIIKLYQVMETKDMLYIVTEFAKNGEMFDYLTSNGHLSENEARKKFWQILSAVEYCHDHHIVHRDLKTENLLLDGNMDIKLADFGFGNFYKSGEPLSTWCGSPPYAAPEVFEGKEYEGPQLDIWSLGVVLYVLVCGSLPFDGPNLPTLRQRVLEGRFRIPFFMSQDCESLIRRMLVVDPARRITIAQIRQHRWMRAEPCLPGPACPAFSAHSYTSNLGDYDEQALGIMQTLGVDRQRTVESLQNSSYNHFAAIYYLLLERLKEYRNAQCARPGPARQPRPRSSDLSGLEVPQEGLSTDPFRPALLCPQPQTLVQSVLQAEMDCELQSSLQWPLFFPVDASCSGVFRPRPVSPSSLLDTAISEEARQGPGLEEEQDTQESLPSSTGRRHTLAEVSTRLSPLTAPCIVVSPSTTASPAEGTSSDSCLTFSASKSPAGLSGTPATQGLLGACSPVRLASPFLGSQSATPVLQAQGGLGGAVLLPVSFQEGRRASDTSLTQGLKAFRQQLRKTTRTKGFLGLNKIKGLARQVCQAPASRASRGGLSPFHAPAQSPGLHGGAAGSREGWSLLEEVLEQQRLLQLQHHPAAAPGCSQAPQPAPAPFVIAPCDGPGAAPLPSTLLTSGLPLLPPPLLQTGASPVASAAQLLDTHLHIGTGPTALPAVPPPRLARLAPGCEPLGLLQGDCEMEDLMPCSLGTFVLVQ
# T19 sequence (P19784 whole entry): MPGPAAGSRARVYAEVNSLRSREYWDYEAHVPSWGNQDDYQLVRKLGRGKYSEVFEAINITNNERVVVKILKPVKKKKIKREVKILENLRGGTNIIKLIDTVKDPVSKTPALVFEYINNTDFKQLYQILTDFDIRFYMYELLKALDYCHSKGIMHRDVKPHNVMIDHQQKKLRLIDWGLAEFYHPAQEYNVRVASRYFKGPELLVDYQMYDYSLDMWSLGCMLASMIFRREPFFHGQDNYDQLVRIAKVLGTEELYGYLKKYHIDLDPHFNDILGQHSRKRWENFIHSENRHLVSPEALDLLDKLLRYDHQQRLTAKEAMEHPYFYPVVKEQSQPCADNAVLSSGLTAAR
# T19 sequence (P67870 whole entry partner): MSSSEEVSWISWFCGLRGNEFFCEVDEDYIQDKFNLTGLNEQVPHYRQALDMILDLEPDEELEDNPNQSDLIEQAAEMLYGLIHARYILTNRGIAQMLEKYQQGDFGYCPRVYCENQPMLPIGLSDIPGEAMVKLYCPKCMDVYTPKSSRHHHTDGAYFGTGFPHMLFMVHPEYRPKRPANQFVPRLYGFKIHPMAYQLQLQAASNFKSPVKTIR
structure (smiles),measurement,setting,value
COc1ccc(/C=C2\SC(=S)NC2=O)cc1C#C[Si](C)(C)C [FINDY],endogenous expression of the other 13 kinases,[1],no alteration
same,inhibition at 10 µM,[2],-2.2%
same,inhibition at 10 µM,[3],3%
same,inhibition at 10 µM,[4],57.9%
same,inhibition at 10 µM,[5],13.9%
same,inhibition at 10 µM,[6],14.3%
same,inhibition at 10 µM,[7],37%
same,inhibition at 10 µM,[8],6.8%
same,inhibition at 10 µM,[9],-13.4%
same,inhibition at 10 µM,[10],-1.3%
same,inhibition at 10 µM,[11],12.4%
same,inhibition at 10 µM,[12],9.2%
same,inhibition at 10 µM,[13],32%
same,inhibition at 10 µM,[14],4.9%
same,inhibition at 10 µM,[15],58.7%
same,inhibition at 10 µM,[16],-6.9%
same,inhibition at 10 µM,[17],-4.6%
same,inhibition at 10 µM,[18],64.9%
same,inhibition at 10 µM,[19],14.6%
same,inhibition at 10 µM,[20],72.5%
same,inhibition at 10 µM,[21],55.4%
same,inhibition at 10 µM,[22],-2%
same,inhibition at 10 µM,[23],-1.1%
same,inhibition at 10 µM,[24],-0.8%
same,inhibition at 10 µM,[25],4.5%
same,inhibition at 10 µM,[26],39.8%
same,inhibition at 10 µM,[27],-9.3%
same,inhibition at 10 µM,[28],29.2%
same,inhibition at 10 µM,[29],50.6%
same,inhibition at 10 µM,[30],60.1%
same,inhibition at 10 µM,[31],3.8%
same,inhibition at 10 µM,[32],37.3%
same,inhibition at 10 µM,[33],6.8%
same,inhibition at 10 µM,[34],10.6%
same,inhibition at 10 µM,[35],14.8%
same,inhibition at 10 µM,[36],13%
same,inhibition at 10 µM,[37],76.8%
same,inhibition at 10 µM,[38],-1.3%
same,inhibition at 10 µM,[39],-0.9%
same,inhibition at 10 µM,[40],23.7%
same,inhibition at 10 µM,[41],39.9%
same,inhibition at 10 µM,[42],30.9%
same,inhibition at 10 µM,[43],15%
same,inhibition at 10 µM,[44],4.9%
